The target in test [1] is T1, Human NHE-1 (Homo sapiens, UniProt P19634).
T1 construct: expressed in transfected cells; host or cells: CCL39-derived PS120 cells (PS120/NHE-1)
The test is described as follows: Inhibitory effect on NHE-1 in PS120/NHE-1 cells (recovery from intracellular acidosis, BCECF fluorescence). Particulars: human NHE-1 expressed PS120 cells; concentration at which recovery from intracellular acidosis was 50% inhibited. Format: cell-based. The protocol: The benzothiophen-2-carbonylguanidine derivatives of the present invention were examined for NHE-1 inhibitory effect in cells according to the following procedure.
Human NHE-1 was expressed in CCL39-derived PS120 cells. These human NHE-1 expressed cells were cultured in DMEM (Dulbecco's modified Eagle's medium) supplemented with 10% fetal bovine serum, 1% penicillin/streptomycin (100× solution), 1% L-glutamine (200 mM aqueous solution). The PS120/NHE-1 cells grown in 100 mm dishes were treated with trypsin at 80-90% confluency, followed by washing with PBS (phosphate buffer saline) once, and then once with an Na-free buffer (138.2 mM Choline chloride, 4.9 mM KCl, […]. 2H2O, 1.2 mM MgSO4.7H2O, 1.2 mM KH2PO4, 15 mM D-glucose, 20 mM HEPES, at pH 7.4). After centrifugation, the pellet was suspended in an Na-free buffer containing 20 mM NH4Cl and 10 μM BCECF-AM [2′,7′-bis(2-carboxyethyl)-5,6-carboxy-fluorescein acetoxymethyl ester] and incubated at 37° C. for 30 min in a CO2 incubator. After being harvested by centrifugation, the PS120/NHE-1 cells were washed once with an Na-free buffer to remove both NH4Cl and extracellular BCECF-AM, suspended at a density of 2.5×10^4 cells/10 μl and stored at 4° C. in a dark room until reuse. In each well of 96-well microplates, 180 μl of HBS (137 mM NaCl, 4.9 mM KCl, 1.5 mM CaCl2. 2H2O, 1.2 mM MgSO4.7H2O, 1.2 mM KH2PO4, 15 mM D-glucose, 20 mM HEPES, at pH 7.4) and 10 μl of DMSO or 10 μl of a solution of the compound (0.03˜10 μM) of the present invention in DMSO were placed and well mixed, after which 10 μl aliquots of the intracellular acidosis-induced PS120/NHE-1 cells were added thereto. 4 min after the cell addition, fluorescence (excitation: 485/444 nm, emission: 535 nm) was measured in the GEMINI-XS Microplate Spectrofluorometer (Molecular Devices). The fluorescence measured was converted into pH values using a high-K^+/nigericin technique. The cells in which intracellular acidosis was induced with NH4Cl prepulses, were recovered to normal pH values through the operation of NHE-1. The inhibitory effect of the compound against NHE-1 was evaluated as concentrations at which the recovery from the intracellular acidosis to a normal state was 50% inhibited (IC50 values), with cariporide used as a control.

In test [2] the test system is isolated ischemic rat heart. Kind of test: Cardioprotective effect in isolated ischemic rat heart model (Langendorff). The conditions noted are these: 10 μM, 30 min global ischemia, 30 min reperfusion. The protocol: Male rats (300 450 g, the Korea Research Institute of Chemical Technology, Experimental Animal Lab) were anesthetized by intraperitoneal injection with sodium pentobarbital at a dose of 100 mg/kg and were intravenously administered with heparine at a dose of 1000 U/kg, followed by the excision of the heart. In detail, a tracheotomy was performed and a tracheal cannula (PE 240) was inserted into the trachea for subsequent artificial ventilation with room air using a rodent ventilator. […] A catheter tip manometer connected to a latex balloon filled with a mixture of ethanol and distilled water (1:1 v/v) was inserted via an incision in the left atrium into the left ventricle, and the intraventricular pressure thereof transmitted to the latex balloon was measured isovolumetrically with a transducer and recorded on a recording system (Linearcorder mark 8 WR 3500) with the aid of an amplifier (Plugsys bridge amplifier). After stabilizing the heart for 15 min, the balloon volume was adjusted to create a left ventricular end-diastolic pressure (LVEDP) of 5 mmHg during the initial baseline period. The volume of the balloon was maintained until the end of the experiment. Baseline heart contraction function, spontaneous heart rate (HR) and coronary flow (CF) were determined from the left ventricular contraction interval. The left ventricular developed pressure (LVDP), which is regarded as an index of contractile function of the isolated heart, was calculated by subtracting left ventricular end-diastolic pressure (LVEDP) from left ventricular peak systolic pressure (LVSP). In contrast to the heart in the body, the Langendorff heart cannot be measured for cardiac output and thus, RPP (rate-pressure product), which is an important indirect indicator for cardiac performance, was calculated by multiplying heart rate (HR) by LVDP. Throughout the experiment, the temperature of the heart was maintained constant by […] in a 37° C. physiological solution to which 95% O2/5% CO2 was continuously supplied. The heart thus stabilized was perfursed for 10 min with a solution of the compounds of the invention or control drugs in DMSO (dimethylsulfoxide) diluted with HBS (final DMSO conc. 0.04%), or with the solvent only (a negative control; 0.04% DMSO) and then measured again for contractile function, heart rate (HR) and coronary flow (CF). The supply of perfusates was completely stopped for 30 min in order to induce global ischemia in the heart, followed by reperfusion for 30 min. The indices (LVDP, HR, LVEDP, and CF) were measured again. After the reperfusion, the total level of lactate dehydrogenase (LDH) in the reperfusates was measured using a kit and taken as an index of ischemic myocardial injury. A negative control group was treated with the solvent only while cariporide was used as a positive control.

One may read the IC50 as the concentration that gives 50% inhibition.

T1 sequence (P19634 whole entry): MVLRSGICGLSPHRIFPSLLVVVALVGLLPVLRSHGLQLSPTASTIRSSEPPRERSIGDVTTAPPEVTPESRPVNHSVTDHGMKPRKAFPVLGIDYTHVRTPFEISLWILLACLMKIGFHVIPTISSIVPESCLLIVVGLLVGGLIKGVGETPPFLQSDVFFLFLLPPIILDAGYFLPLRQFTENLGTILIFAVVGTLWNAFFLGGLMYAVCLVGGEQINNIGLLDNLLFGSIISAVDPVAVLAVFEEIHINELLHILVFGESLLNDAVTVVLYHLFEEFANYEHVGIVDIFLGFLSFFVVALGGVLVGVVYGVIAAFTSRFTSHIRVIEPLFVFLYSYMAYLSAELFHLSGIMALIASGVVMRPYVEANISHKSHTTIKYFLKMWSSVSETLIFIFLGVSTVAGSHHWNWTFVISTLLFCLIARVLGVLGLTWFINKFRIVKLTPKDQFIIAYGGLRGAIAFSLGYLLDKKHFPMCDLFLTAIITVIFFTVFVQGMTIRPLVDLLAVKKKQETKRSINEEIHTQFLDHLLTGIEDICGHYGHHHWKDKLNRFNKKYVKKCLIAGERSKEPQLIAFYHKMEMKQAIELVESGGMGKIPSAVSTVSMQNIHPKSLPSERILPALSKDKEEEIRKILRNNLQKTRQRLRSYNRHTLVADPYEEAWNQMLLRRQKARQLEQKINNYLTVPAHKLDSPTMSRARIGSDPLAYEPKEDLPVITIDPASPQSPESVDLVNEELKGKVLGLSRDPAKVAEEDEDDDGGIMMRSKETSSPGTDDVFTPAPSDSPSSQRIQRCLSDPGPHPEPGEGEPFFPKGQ

In test [1], `CS(=O)(=O)O.NC(N)=NC(=O)c1cc2c(Br)cccc2s1` [Example 1, (4-Bromobenzothiophene-2-Carbonyl)Guanidine Methanesulfonate] returned a concentration for half-maximal inhibition (IC50) of 200 nM. Besides, in test [2], the “LVEDP (left ventricular end-diastolic pressure)” value (shortened to “LVEDP”) was determined as 34.0 mmHg and the “RPP (rate-pressure product (LVDP × HR) % relative to the value before ischemia induction)” value was 54.7%.

In turn, `CS(=O)(=O)O.NC(N)=NC(=O)c1cc2c(-c3cc(Cl)cc(Cl)c3)cccc2s1` [Example 19, [4-(3,5-Dichlorophenyl)Benzothiophene-2-Carbonyl]Guanidine Methanesulfonate] showed a concentration for half-maximal inhibition (IC50) in test [1] of 680 nM. Besides, in test [2], the “LVEDP” value was found to be 64.4 mmHg and the “RPP (rate-pressure product (LVDP × HR) % relative to the value before ischemia induction)” value is 19.1%.

As for `CS(=O)(=O)O.NC(N)=NC(=O)c1cc2c(-c3ccc(F)c(Cl)c3)cccc2s1` [Example 23, [4-(3-Chloro-4-Fluorophenyl)Benzothiophene-2-Carbonyl]Guanidine Methanesulfonate], it took 2480 nM to reach half-maximal inhibition in test [1] (IC50). Besides, in test [2], the “LDH (free LDH level upon reperfusion)” value is on record as 8.8 u/g, the “LVEDP” value was 68.0 mmHg and the “RPP (rate-pressure product (LVDP × HR) % relative to the value before ischemia induction)” value amounted to 5.9%.

Molecule `CS(=O)(=O)O.NC(N)=NC(=O)c1cc2c(Cl)cccc2s1` [Example 32, (4-Chlorobenzothiophene-2-Carbonyl)Guanidine Methanesulfonate] displayed a 50% inhibitory concentration (IC50) in test [1] of 200 nM. In addition, in test [2], the “LDH (free LDH level upon reperfusion)” value turned out to be 8.8 u/g, the “LVEDP” value turned out to be 25.3 mmHg and the “RPP (rate-pressure product (LVDP × HR) % relative to the value before ischemia induction)” value was 60.8%.

With `CS(=O)(=O)O.NC(N)=NC(=O)c1cc2c(F)cccc2s1` [Example 33, (4-Fluorobenzothiophene-2-Carbonyl)Guanidine Methanesulfonate], in test [1], the IC50 worked out at 1730 nM. In test [2], the “LDH (free LDH level upon reperfusion)” value is 7.0 u/g, the “LVEDP” value worked out at 37.7 mmHg and the “RPP (rate-pressure product (LVDP × HR) % relative to the value before ischemia induction)” value turned out to be 46.6%.

In test [1], `N=C(N)NC(=O)c1cc2c(I)cccc2s1` [Example 34, (4-Iodobenzothiophene-2-Carbonyl)Guanidine Methanesulfonate] yielded an IC50 of less than 500 nM. For the same molecule, in test [2], the “LDH (free LDH level upon reperfusion)” value turned out to be 7.1 u/g, the “LVEDP” value turned out to be 19.0 mmHg and the “RPP (rate-pressure product (LVDP × HR) % relative to the value before ischemia induction)” value is reported as 65.8%.

In turn, `CS(=O)(=O)O.Cc1cccc2sc(C(=O)N=C(N)N)cc12` [Example 35, (4-Methylbenzothiophene-2-Carbonyl)Guanidine Methanesulfonate] registered a half-maximal inhibitory concentration (IC50) in test [1] of 480 nM. Besides, in test [2], the “LVEDP” value was 38.0 mmHg and the “RPP (rate-pressure product (LVDP × HR) % relative to the value before ischemia induction)” value amounted to 40.4%.

With `C=Cc1cccc2sc(C(=O)N=C(N)N)cc12.CS(=O)(=O)O` [Example 36, (4-Vinylbenzothiophene-2-Carbonyl)Guanidine Methanesulfonate], inhibition in test [1] was half-maximal at 310 nM (IC50). In test [2], the “LDH (free LDH level upon reperfusion)” value amounted to 13.1 u/g, the “LVEDP” value was 42.0 mmHg and the “RPP (rate-pressure product (LVDP × HR) % relative to the value before ischemia induction)” value amounted to 51.0%.

As to `CS(=O)(=O)O.NC(N)=NC(=O)c1cc2c([N+](=O)[O-])cccc2s1` [Example 39, (4-Nitrobenzothiophene-2-Carbonyl)Guanidine Methanesulfonate], inhibition in test [1] was half-maximal at 2340 nM (IC50). Also, in test [2], the “LDH (free LDH level upon reperfusion)” value came to 10.8 u/g, the “LVEDP” value was 11.3 mmHg and the “RPP (rate-pressure product (LVDP × HR) % relative to the value before ischemia induction)” value was found to be 73.3%.

In turn, `N=C(N)NC(=O)c1cc2ccccc2s1` [Example 44, (Benzothiophene-2-Carbonyl)Guanidine Methanesulfonate] showed an IC50 in test [1] of 11700 nM.

For the molecule `CS(=O)(=O)O.Cc1ccc2sc(C(=O)N=C(N)N)cc2c1Br` [Example 45, (4-Bromo-5-Methylbenzothiophene-2-Carbonyl)Guanidine Methanesulfonate], half-maximal inhibition in test [1] (IC50) required 290 nM. In test [2], the “LDH (free LDH level upon reperfusion)” value stood at 22.5 u/g, the “LVEDP” value worked out at 41.8 mmHg and the “RPP (rate-pressure product (LVDP × HR) % relative to the value before ischemia induction)” value is 50.4%.

Turning to `Cc1ccc2sc(C(=O)N=C(N)N)cc2c1Cl` [Example 46, (4-Chloro-5-Methylbenzothiophene-2-Carbonyl)Guanidine Methanesulfonate], the IC50 in test [1] was 540 nM.

With `CS(=O)(=O)O.Cc1ccc2sc(C(=O)N=C(N)N)cc2c1C` [Example 47, (4,5-Dimethylbenzothiophene-2-Carbonyl)Guanidine Methanesulfonate], in test [1], half-maximal inhibition (IC50) was put at 750 nM. Besides, in test [2], the “LDH (free LDH level upon reperfusion)” value amounted to 21.2 u/g, the “LVEDP” value came out at 25.0 mmHg and the “RPP (rate-pressure product (LVDP × HR) % relative to the value before ischemia induction)” value is 59.3%.
